One test has as its system A549. Put plainly: In vitro cytotoxic activity against human lung carcinoma A549 cell line. The format is functional, cell-based.
In the next test the test system is SK-MEL-2. Put plainly: In vitro cytotoxic activity against human melanoma SK-MEL-2 cell line. The format is functional, cell-based.

The term IC50 denotes the midpoint of a concentration-inhibition curve. Low values mean greater potency, high ones weaker potency. As to `O=C1NC(c2ccccc2)CN1S(=O)(=O)c1ccc2c(c1)CCC2` (stereo not given), in the test with A549, the IC50 was 0.91 µM. This counts as sub-micromolar.

For the compound `Cc1ccc(S(=O)(=O)N2C(=O)NCC2c2ccc(Br)cc2)cc1` (stereo not given), the IC50 amounted to 80 µM in the test on SK-MEL-2 and 67 µM with A549. `Cc1ccc(C2CNC(=O)N2S(=O)(=O)c2ccc3c(c2)CCC3)cc1` (stereo not given): the IC50 in the test on SK-MEL-2 worked out at 88.6 µM; in the test on A549, 90.3 µM.

On to `Cc1ccc(C2CN(S(=O)(=O)c3ccc(C)cc3)C(=O)N2)cc1` (stereo not given), for which the IC50 with SK-MEL-2 and in the test on A549 was above 303 µM each time. On to `Cc1ccc(C2CNC(=O)N2S(=O)(=O)c2ccccc2)cc1` (stereo not given), for which the results for the IC50 in the test with SK-MEL-2 and in the test on A549 were 144 µM and 157 µM, respectively. With `O=C1NC(c2ccc(Br)cc2)CN1S(=O)(=O)c1ccc(Cl)cc1` (stereo not given), the values for the IC50 with SK-MEL-2 and in the test with A549 were 111 µM and 161 µM, respectively. In the case of `O=C1NC(c2ccccc2)CN1S(=O)(=O)c1ccccc1` (stereo not given), the IC50 with SK-MEL-2 came to 116 µM; in the test with A549, 145 µM. On to `O=C1NC(c2ccc(Cl)cc2)CN1S(=O)(=O)c1ccc2c(c1)CCC2` (stereo not given), for which the IC50 came out at 64.3 µM in the test with SK-MEL-2 and 86.3 µM in the test with A549.

For `Cc1ccc(C2CN(S(=O)(=O)c3ccc(Cl)cc3)C(=O)N2)cc1` (stereo not given), the IC50 with SK-MEL-2 was determined as 123 µM; in the test on A549, 158 µM. Consider `Cc1ccc(C2CNC(=O)N2S(=O)(=O)c2ccc(C)cc2)cc1` (stereo not given), for which the results for the IC50 with SK-MEL-2 and in the test with A549 were 234 µM and above 303 µM, respectively. Consider `O=C1NCC(c2ccc(Br)cc2)N1S(=O)(=O)c1ccc(Cl)cc1` (stereo not given), for which the IC50 in the test with SK-MEL-2 came to 106 µM; with A549, 84 µM.

For the compound `Cc1ccc(C2CN(S(=O)(=O)c3ccccc3)C(=O)N2)cc1` (stereo not given), the IC50 in the test with SK-MEL-2 and with A549 was above 316 µM throughout.

Take `O=C1NCC(c2ccc(Br)cc2)N1S(=O)(=O)c1ccc2c(c1)CCC2` (stereo not given): the IC50 was 119 µM in the test on SK-MEL-2 and above 237 µM with A549. On the same counts, the results for `Cc1ccc(S(=O)(=O)N2CC(c3ccccc3)NC2=O)cc1` (stereo not given) are 2.53 µM and 12.5 µM. With `Cc1ccc(C2CN(S(=O)(=O)c3ccc4c(c3)CCC4)C(=O)N2)cc1` (stereo not given), the figures for the IC50 in the test with SK-MEL-2 and in the test with A549 were 72.5 µM and 99.2 µM, respectively. As for `O=C1NCC(c2ccc(Cl)cc2)N1S(=O)(=O)c1ccc2c(c1)CCC2` (stereo not given), the IC50 in the test with SK-MEL-2 was 161 µM; in the test on A549, above 265 µM. On to `O=C1NC(c2ccc(Br)cc2)CN1S(=O)(=O)c1ccc2c(c1)CCC2` (stereo not given), for which the IC50 in the test with SK-MEL-2 came out at 32.6 µM; in the test on A549, 33.9 µM.

As to `Cc1ccc(S(=O)(=O)N2CC(c3ccc(Br)cc3)NC2=O)cc1` (stereo not given), the IC50 in the test on SK-MEL-2 and in the test on A549 was above 253 µM in each case. On to `Cc1ccc(S(=O)(=O)N2C(=O)NCC2c2ccccc2)cc1` (stereo not given), for which the IC50 in the test on SK-MEL-2 and with A549 was above 316 µM throughout.

On to `O=C1NC(c2ccccc2)CN1S(=O)(=O)c1ccc(Cl)cc1` (stereo not given), for which the results for the IC50 in the test with SK-MEL-2 and in the test with A549 were 1.43 µM and 9.47 µM, respectively.

Turning to `Cc1ccc(C2CNC(=O)N2S(=O)(=O)c2ccc(Cl)cc2)cc1` (stereo not given), the IC50 with SK-MEL-2 is 255 µM; in the test on A549 it was 266 µM. In the case of `O=C1NCC(c2ccccc2)N1S(=O)(=O)c1ccc2c(c1)CCC2` (stereo not given), the IC50 was 39 µM in the test with SK-MEL-2 and 58.5 µM in the test on A549.

With `O=C(Nc1ccc(Cl)cc1)NS(=O)(=O)c1ccc2c(c1)CCC2` [SULOFENUR], the figures for the IC50 in the test on SK-MEL-2 and in the test with A549 were 12.9 µM and 11.3 µM, respectively.

These data come from ChEMBL document CHEMBL1159151, “Synthesis and evaluation of cytotoxic activity of novel arylsulfonylimidazolidinones” (Bioorg Med Chem Lett, 1996).
